From US20080234233A1, “MEDICAMENT FOR TREATMENT OF NEURODEGENERATIVE DISEASES” (INSTITUTE OF MEDICINAL MOLECULAR DESIGN INC., priority 2002, published 2008)

Test system: NF-κ B activation
Experiment: Inhibitory activity of NF-κB activation, luciferase reporter assay under TNF-α stimulation in HepG2
Type: cell-based, human
Conditions: HepG2, TNF-α 40 ng/ml, 4 hours; for inhibition at 1 µg/mL / inhibition at 10 µg/mL: Homo sapiens, read-out: Inhibitory rate against NF-κB activation (%)
Procedure: Measurement of Inhibitory Activity of NF-κB activation
Using a transfection reagent (Effectene; QIAGEN), the human hepatoma cell strain HepG2 was transfected with a plasmid (pNF κ B-Luc Reporter Plasmid; […]) integrated with an oligonucleotide having five tandem copies of NF-κ B binding sequences([…]) on a upstream region of firefly luciferase gene(Luc) according to the QIAGEN's protocol, and the cells were incubated for 6 to 24 hours. After addition of TNF-α (40 ng/ml) in the presence or absence of a test compound, the cells were incubated for 4 hours, and intracellular luciferase activity was measured by using PicaGene LT (TOYO INK MFG Co., Ltd.) and a chemical luminescence measurement apparatus ([…]luor Plus; TECAN). The inhibitory ratio was measured as a ratio relative to the value of the luciferase activity in the absence of the test compound.

Inhibitory rate against NF-κB activation (%) (Drug concentration at 1 μg/mL)	Inhibitory rate against NF-κB activation (%) (Drug concentration at 10 μg/mL)	SMILES	inhibition at 1 µg/mL (Drug concentration at 1 μg/mL)	inhibition at 10 µg/mL (Drug concentration at 10 μg/mL)
93.8%	97.9%	CC(C)CCOc1ccc(OCCC(C)C)c(NC(=O)c2cc(Cl)ccc2O)c1 [compound 162]	–	–
88.2%	85.4%	CCOC(=O)c1c(NC(=O)c2cc(Cl)ccc2O)sc2c1CCCC2 [compound 232]	–	–
94.2%	97.6%	CCCCOc1ccc(OCCCC)c(NC(=O)c2cc(Cl)ccc2O)c1 [compound 161]	–	–
52.4%	96.8%	COc1ccc(OC)c(NC(=O)c2cc(Cl)ccc2O)c1 [compound 158]	–	–
85.3%	90.2%	O=C(Nc1cc(Cl)cc(Cl)c1)c1c(O)ccc2ccccc12 [compound 182]	–	–
–	89.7%	COc1ccc(C)cc1NC(=O)c1cc(Cl)ccc1O [compound 178]	–	–
87.6%	96.5%	CCOC(=O)c1sc(NC(=O)c2cc(Br)ccc2O)nc1C(F)(F)F [compound 224]	–	–
45.0%	85.8%	CCOC(=O)c1sc(NC(=O)c2cc(-c3ccc(F)cc3)ccc2O)nc1-c1ccccc1 [compound 226]	–	–
69.6%	96.5%	COc1ccc(C)c(NC(=O)c2cc(Cl)ccc2O)c1 [compound 160]	–	–
96.0%	99.5%	CCCCc1ccc([N+](=O)[O-])cc1NC(=O)c1cc(Cl)ccc1O [compound 176]	–	–
94.1%	96.4%	Cc1ccc(C(=O)C(C)(C)C)cc1NC(=O)c1cc(Cl)ccc1O [compound 166]	–	–
96.3%	99.5%	COc1ccc(Oc2ccc(C(F)(F)F)cc2NC(=O)c2cc(Cl)ccc2O)cc1 [compound 253]	–	–
93.9%	96.3%	N#Cc1ccc(Oc2ccc(C(F)(F)F)cc2NC(=O)c2cc(Cl)ccc2O)cc1 [compound 252]	–	–
–	67.2%	Cc1nc(NC(=O)c2cc(Br)ccc2O)sc1C [compound 191]	–	–
–	89.6%	O=C(Nc1cc(N2CCOCC2)ccc1[N+](=O)[O-])c1cc(Cl)ccc1O [compound 174]	–	–

The next lines start with the compound.

SMILES	Inhibitory rate against NF-κB activation (%) (Drug concentration at 1 μg/mL)	Inhibitory rate against NF-κB activation (%) (Drug concentration at 10 μg/mL)	inhibition at 1 µg/mL (Drug concentration at 1 μg/mL)	inhibition at 10 µg/mL (Drug concentration at 10 μg/mL)
Cc1ccc(O)c(C(=O)Nc2cc(C(F)(F)F)ccc2Cl)c1 [compound 100]	85.6%	95.1%	–	–
O=C(Nc1cc(F)cc(F)c1)c1cc(Br)ccc1O [compound 123]	91.8%	96.8%	–	–
COC(=O)c1cc(NC(=O)c2cc(Cl)ccc2O)cc(C(F)(F)F)c1 [compound 108, 5-chloro-2-hydroxy-N-[3-methoxycarbonyl-5-(trifluoromethyl)phenyl]benzamide]	–	–	41.5%	88.4%
COC(=O)c1cc(NC(=O)c2cc(Br)ccc2O)cc(C(=O)OC)c1 [compound 144, 5-bromo-2-hydroxy-N-[3,5-bis(methoxycarbonyl)phenyl]benzamide]	–	–	–	56.4%
O=C(Nc1cc(C(F)(F)F)ccc1N1CCC(C(F)(F)F)CC1)c1cc(Cl)ccc1O [compound 112]	96.5%	95.7%	–	–
CN(C)c1ccc(O)c(C(=O)Nc2cc(C(F)(F)F)cc(C(F)(F)F)c2)c1 [compound 44]	–	67.5%	–	–
CC(C)c1nc(NC(=O)c2cc(Br)ccc2O)sc1-c1ccccc1 [compound 197, 5-Bromo-N-(4-isopropyl-5-phenylthiazol-2-yl)-2-hydroxybenzamide]	–	–	70.1%	96.1%
Cc1ccc(C(F)(F)F)cc1NC(=O)c1cc(Cl)ccc1O [compound 92]	93.8%	97.9%	–	–
CN(C)S(=O)(=O)c1ccc(O)c(C(=O)Nc2cc(C(F)(F)F)cc(C(F)(F)F)c2)c1 [compound 41, N-[3,5-Bis(trifluoromethyl)phenyl]-5-dimethylsufamoyl-2-hydroxybenzamide]	42.2%	95.9%	–	–
CC(C)(C)c1csc(NC(=O)c2cc(Br)ccc2O)n1 [compound 185, 5-Bromo-N-{4-[(1,1-dimethyl)ethyl]thiazol-2-yl}-2-hydroxybenzamide]	–	–	88.4%	95.2%
O=C(Nc1nc(-c2ccc(C(F)(F)F)cc2)cs1)c1cc(Cl)ccc1O [compound 261, 5-Chloro-2-hydroxy-N-{4-[4-(trifluoromethyl)phenyl]thiazol-2-yl}benzamide]	–	–	> 99.9%	–
CCOC(=O)c1sc(NC(=O)c2cc(Br)ccc2O)nc1C(C)(C)C [compound 202, 2-(5-Bromo-2-hydroxybenzoyl)amino-4-[(1,1-dimethyl)ethyl]thiazole-5-carboxylic acid ethyl ester]	–	–	84.5%	92.4%
N#CC(=Cc1ccc(O)c(C(=O)Nc2cc(C(F)(F)F)cc(C(F)(F)F)c2)c1)C(=O)O [compound 18]	59.7%	98.5%	–	–
CC(=O)Oc1ccc(Cl)cc1C(=O)Nc1cc(C(F)(F)F)cc(C(F)(F)F)c1 [compound 5]	96.5%	99.2%	–	–
Cc1ccc(O)c(C(=O)Nc2cc(Cl)cc(Cl)c2)c1 [compound 131]	49.1%	88.7%	–	–
O=C(Nc1cc(C(F)(F)F)cc(C(F)(F)F)c1)c1ccc(F)cc1O [compound 250]	94.2%	95.4%	–	–

SMILES	Inhibitory rate against NF-κB activation (%) (Drug concentration at 1 μg/mL)	Inhibitory rate against NF-κB activation (%) (Drug concentration at 10 μg/mL)	inhibition at 1 µg/mL (Drug concentration at 1 μg/mL)	inhibition at 10 µg/mL (Drug concentration at 10 μg/mL)
CC(=O)Oc1ccc(Cl)cc1C(=O)Nc1cc(C(F)(F)F)ccc1C(F)(F)F [compound 82]	94.0%	96.8%	–	–
N#Cc1ccc(O)c(C(=O)Nc2cc(C(F)(F)F)cc(C(F)(F)F)c2)c1 [compound 9, N-[3,5-Bis(trifluoromethyl)phenyl]-5-cyano-2-hydroxybenzamide]	–	–	92.2%	99.6%
O=C(Nc1cc(C(F)(F)F)cc(C(F)(F)F)c1)c1cccc(O)c1O [compound 57]	–	91.9%	–	–
O=C(Nc1cc(C(F)(F)F)cc(C(F)(F)F)c1)c1cc(C(=O)N2CCCCC2)ccc1O [compound 39, N-[3,5-Bis(trifluoromethyl)phenyl]-2-hydroxy-5-(piperidine-1-carbonyl)benzamide]	–	–	23.7%	82.2%
O=C(Nc1cc(C(F)(F)F)cc(C(F)(F)F)c1)c1cc(CCc2ccccc2)ccc1O [compound 24]	92.3%	98.3%	–	–
CC(C)(C)c1cc(NC(=O)c2cc(Cl)ccc2O)cc(C(C)(C)C)c1 [compound 138, N-{3,5-bis[(1,1-dimethyl)ethyl]phenyl}-5-chloro-2-hydroxybenzamide]	–	–	89.6%	98.1%
CC(C)(C)c1nc(NC(=O)c2cc(Cl)ccc2O)sc1C#N [compound 188, 5-Chloro-N-{5-cyano-4-[(1,1-dimethyl)ethyl]thiazol-2-yl}-2-hydroxybenzamide]	–	–	92.6%	92.4%
O=C(Nc1nc(-c2ccccc2)c(C(=O)c2ccccc2)s1)c1cc(Br)ccc1O [compound 215, 5-Bromo-N-(5-benzoyl-4-phenylthiazol-2-yl)-2-hydroxybenzamide]	–	–	90.7%	97.3%
COc1cc(NC(=O)c2cc(Br)ccc2O)cc(OC)c1 [compound 143]	38.3%	96.8%	–	–
O=C(Nc1cc(C(F)(F)F)ccc1Cl)c1cc([N+](=O)[O-])ccc1O [compound 99]	54.3%	98.0%	–	–
Cc1nc(NC(=O)c2cc(Br)ccc2O)sc1-c1cccc(C(F)(F)F)c1 [compound 194, 5-Bromo-N-{4-methyl-5-[3-(trifluoromethyl)phenyl]thiazol-2-yl}-2-hydroxy-benzamide]	–	–	–	71.7%
O=C(Nc1cc(C(F)(F)F)ccc1Oc1ccc(Cl)cc1Cl)c1cc(Cl)ccc1O [compound 111]	96.5%	99.7%	–	–
CC(C)(C)c1nc(NC(=O)c2cc(Br)ccc2O)sc1N1CCOCC1 [compound 205, 5-Bromo-N-{4-[(1,1-dimethyl)ethyl]-5-morpholinothiazol-2-yl}-2-hydroxybenzamide]	–	–	87.8%	96.8%
CC(C)c1cccc(C(=O)Nc2cc(C(F)(F)F)cc(C(F)(F)F)c2)c1O [compound 256, N-[3,5-bis(trifluoromethyl)phenyl]-2-hydroxy-3-isopropylbenzamide]	–	–	92.1%	–
O=C(Nc1cc(C(F)(F)F)cc(C(F)(F)F)c1)c1cccc(-c2ccccc2)c1O [compound 249, N-[3,5-bis(trifluoromethyl)phenyl]-2-hydroxy-3-phenylbenzamide]	–	–	86.6%	90.7%
